Results reported in PubChem BioAssay AID1963853 (Molecular Pharmacology Branch, DTP, NCI, 2024).
pIC50: −log10 of the molar value.

Test system: 266295-075-R-J1-PDC spheroid viability
Experiment: Anticancer human tumor 266295-075-R-J1-PDC patient-derived head and neck squamous carcinoma cell line growth inhibition [POLQ]
Details: spheroids with HUVEC and MSC; for pIC50: curve of first compound; for viability, T/C: stronger effect = lower value
Outline: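 Patient-derived tumour cells were co-cultured with HUVEC and mesenchymal stem cells as multicellular spheroids at 37 °C. They were treated with POLQ inhibitors (novobiocin, ART-558, RP6685) alone or combined with other agents. Top concentrations were at or near clinical Cmax (otherwise 10 microM; SN-38 at 1 microM), decreasing in half-log steps.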
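Further: spheroids exposed to compounds for seven days before readout.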

CCc1cc2c(N3CCc4c(cc(Cn5ccnc5)cc4-c4cn(C)nc4C(F)(F)F)C3=O)ccnc2c(OC)n1 + Cc1cccc(N(C)C(=O)C2C(O)CCN2c2nc(C)cc(C(F)(F)F)c2C#N)c1
pIC50 (second compound 0.0316 µM): < 5.00 | pIC50 (second compound 0.1 µM): < 5.00 | pIC50 (second compound 0.316 µM): < 5.00 | pIC50 (second compound 1 µM): < 5.00 | pIC50 (second compound 3.16 µM): < 5.00 | pIC50 (second compound 10 µM): < 5.00 | viability, T/C (second compound 0.0316 µM, first compound 0.0316 µM): 90.4% | viability, T/C (second compound 0.0316 µM, first compound 0.1 µM): 101% | viability, T/C (second compound 0.0316 µM, first compound 0.316 µM): 78.6% | viability, T/C (second compound 0.0316 µM, first compound 1 µM): 115% | viability, T/C (second compound 0.0316 µM, first compound 3.16 µM): 138% | viability, T/C (second compound 0.0316 µM, first compound 10 µM): 126% | viability, T/C (second compound 0.1 µM, first compound 0.0316 µM): 98.6% | viability, T/C (second compound 0.1 µM, first compound 0.1 µM): 90% | viability, T/C (second compound 0.1 µM, first compound 0.316 µM): 105% | viability, T/C (second compound 0.1 µM, first compound 1 µM): 99.6% | viability, T/C (second compound 0.1 µM, first compound 3.16 µM): 119% | viability, T/C (second compound 0.1 µM, first compound 10 µM): 124% | viability, T/C (second compound 0.316 µM, first compound 0.0316 µM): 119% | viability, T/C (second compound 0.316 µM, first compound 0.1 µM): 102% | viability, T/C (second compound 0.316 µM, first compound 0.316 µM): 80.3% | viability, T/C (second compound 0.316 µM, first compound 1 µM): 92.8% | viability, T/C (second compound 0.316 µM, first compound 3.16 µM): 130% | viability, T/C (second compound 0.316 µM, first compound 10 µM): 104% | viability, T/C (second compound 1 µM, first compound 0.0316 µM): 86.7% | viability, T/C (second compound 1 µM, first compound 0.1 µM): 105% | viability, T/C (second compound 1 µM, first compound 0.316 µM): 90.6% | viability, T/C (second compound 1 µM, first compound 1 µM): 110% | viability, T/C (second compound 1 µM, first compound 3.16 µM): 141% | viability, T/C (second compound 1 µM, first compound 10 µM): 104% | viability, T/C (second compound 3.16 µM, first compound 0.0316 µM): 107% | viability, T/C (second compound 3.16 µM, first compound 0.1 µM): 82.1% | viability, T/C (second compound 3.16 µM, first compound 0.316 µM): 104% | viability, T/C (second compound 3.16 µM, first compound 1 µM): 103% | viability, T/C (second compound 3.16 µM, first compound 3.16 µM): 122% | viability, T/C (second compound 3.16 µM, first compound 10 µM): 118% | viability, T/C (second compound 10 µM, first compound 0.0316 µM): 97.8% | viability, T/C (second compound 10 µM, first compound 0.1 µM): 90.6% | viability, T/C (second compound 10 µM, first compound 0.316 µM): 110% | viability, T/C (second compound 10 µM, first compound 1 µM): 132% | viability, T/C (second compound 10 µM, first compound 3.16 µM): 127% | viability, T/C (second compound 10 µM, first compound 10 µM): 144%
